Values quoted from earlier work as cited in US20220184026A1, “COMPOSITIONS OF FULVIC ACID AND CANNABINOID AND USES THEREOF” (Omni Bioceutical Innovations, Inc., priority 2019, published 2022).
Like-named read-outs stand apart in the source and are kept apart here.

Tested on: chronic wounds
Parameters: key: N.S. = not statistically significant

Substance: basic fibroblast growth factor [bFGF]
- Results (Richard et al., diabetic wounds (n=17), 0.25 to 0.75 μg/cm^2 daily): N.S.
- Results (Robson et al., pressure wounds (n=50), 1, 5, and 10 μg/cm^2): N.S.

Substance: epidermal growth factor (NSDSECPLSHDGYCLHDGVCMYIEALDKYACNCVVGYIGERCQYRDLKWWELR; not fully specified; Epidermal growth factor; UniProt P01133 971-1023, looked up) [EGF]
- Results (Falanga et al., venous wounds (n=44), 10 μg/mL twice per day): N.S.

Substance: granulocyte-macrophage colony-stimulating factor [GM-CSF]
- Results (da Costa et al., venous + arterial wounds (n=25), 400 μg injected once around the wound): N.S.

Substance: human growth hormone [HGH]
- Results (Rasmussen et al., venous wounds (n=37), 1 IU/cm^2 per week): N.S.

Substance: interleukin-1B [IL-1B]
- Results (Robson et al., pressure wounds (n=25), 0.01, 0.1, and 1 μg/cm^2 daily): N.S.
